One block for each compound: values may come before it.
Assays:
[1] = biological target: Cyclin-dependent kinase 2/cyclin E (Homo sapiens, UniProt P24941); assay: Inhibitory activity against baculovirus expressed Cyclin dependent kinase 2-cyclinE; format: protein-complex assay
[2] = biological target: Cyclin-dependent kinase 4/cyclin D1 (Homo sapiens, UniProt P11802); assay: Inhibitory activity against baculovirus expressed Cyclin dependent kinase 4-cyclinD1; format: protein-complex assay
A2780 [3] = assay: cells; conditions: Homo sapiens
Description: Cytotoxic activity against A2780 human ovarian carcinoma cell line

[4] = biological target: Cyclin-dependent kinase 1/cyclin B (Homo sapiens, UniProt P06493); assay: Inhibitory activity against baculovirus expressed Cyclin dependent kinase 1-cyclinB; format: protein-complex assay
[5] = Inhibition of Insulin-like growth factor receptor
HS27 = assay: Inhibition of Hs 27 human fibroblast cell proliferation; format: functional, cell-based
SK-BR-3 = assay: Inhibition of SKBR-3 human breast carcinoma cell proliferation; format: functional, cell-based
HCT-116 [6] = assay: Inhibition of HCT116 / VP35 human colon carcinoma cell proliferation; format: functional, cell-based
A2780 [7] = assay: Inhibition of A2780 / DDP-R human ovarian carcinoma cell proliferation; format: functional, cell-based
[8] = biological target: Receptor tyrosine-protein kinase erbB-2 (Homo sapiens, UniProt P04626); assay: Inhibition of HER2 kinase
K562 = assay: Inhibition of K562 human leukemia cell proliferation; format: functional, cell-based
[9] = biological target: Cyclin-dependent kinase 2 (Homo sapiens) (UniProt P24941); assay: Apoptotic A2780 cells after 24 hr r at 295 nM (IC90); format: functional, cell-based
MLF = assay: Inhibition of MLF mouse lung fibroblast cell proliferation; format: functional, cell-based
[10] = biological target: Cyclin-dependent kinase 2 (Homo sapiens) (UniProt P24941); assay: Percentage A2780 cells in G1 after 24 hr r at 20 nM (IC50); format: functional, cell-based
LS174T = assay: Inhibition of LS174T human colon carcinoma cell proliferation; format: functional, cell-based
A2780 [11] = assay: Inhibition of A2780 / TAX-R human ovarian carcinoma cell proliferation; format: functional, cell-based
A-431 = assay: Inhibition of A431 human squamous cell carcinoma cell proliferation; format: functional, cell-based
[12] = biological target: Cyclin-dependent kinase 2 (Homo sapiens) (UniProt P24941); assay: Percentage A2780 cells in G1 after 24 hr r at 295 nM (IC90); format: functional, cell-based
[13] = biological target: Cyclin-dependent kinase 2 (Homo sapiens) (UniProt P24941); assay: Percentage A2780 cells in sub-G1 after 24 hr r at 295 nM (IC90); format: functional, cell-based
PC-3 = assay: Inhibition of PC3 human prostate carcinoma cell proliferation; format: functional, cell-based
ABAE = assay: Inhibition of ABAE […] cell proliferation; format: functional, cell-based
OVCAR-3 = assay: Inhibition of OVCAR-3 human ovarian carcinoma cell proliferation; format: functional, cell-based
A2780 [14] = assay: Inhibition of A2780 / DDP-S human ovarian carcinoma cell proliferation; format: functional, cell-based
CCRF-CEM = assay: Inhibition of CCRF-CEM human leukemia cell proliferation; format: functional, cell-based
HL-60 = assay: Inhibition of HL60 human leukemia cell proliferation; format: functional, cell-based
[15] = biological target: Cyclin-dependent kinase 2 (Homo sapiens) (UniProt P24941); assay: Percentage A2780 cells in G2/M after 24 hr r at 20 nM (IC50); format: functional, cell-based
[16] = biological target: Cyclin-dependent kinase 2 (Homo sapiens) (UniProt P24941); assay: Percentage A2780 cells in S-phase after 24 hr r at 295 nM (IC90); format: functional, cell-based
A549 = assay: Inhibition of A549 human lung carcinoma cell proliferation; format: functional, cell-based
HCT-116 [17] = assay: Inhibition of HCT116 human colon carcinoma cell proliferation; format: functional, cell-based
HCT-116 [18] = assay: Inhibition of HCT116 / VM46 human colon carcinoma cell proliferation; format: functional, cell-based
MCF7 = assay: Inhibition of MCF-7 human breast carcinoma cell proliferation; format: functional, cell-based
[19] = biological target: Cyclin-dependent kinase 2 (Homo sapiens) (UniProt P24941); assay: Percentage A2780 cells in G2/M after 24 hr r at 295 nM (IC90); format: functional, cell-based
[20] = biological target: T1, Tyrosine-protein kinase ITK/TSK (Homo sapiens, UniProt Q08881); assay: Inhibition of tyrosine kinase EMT
T1 sequence (Q08881 whole entry): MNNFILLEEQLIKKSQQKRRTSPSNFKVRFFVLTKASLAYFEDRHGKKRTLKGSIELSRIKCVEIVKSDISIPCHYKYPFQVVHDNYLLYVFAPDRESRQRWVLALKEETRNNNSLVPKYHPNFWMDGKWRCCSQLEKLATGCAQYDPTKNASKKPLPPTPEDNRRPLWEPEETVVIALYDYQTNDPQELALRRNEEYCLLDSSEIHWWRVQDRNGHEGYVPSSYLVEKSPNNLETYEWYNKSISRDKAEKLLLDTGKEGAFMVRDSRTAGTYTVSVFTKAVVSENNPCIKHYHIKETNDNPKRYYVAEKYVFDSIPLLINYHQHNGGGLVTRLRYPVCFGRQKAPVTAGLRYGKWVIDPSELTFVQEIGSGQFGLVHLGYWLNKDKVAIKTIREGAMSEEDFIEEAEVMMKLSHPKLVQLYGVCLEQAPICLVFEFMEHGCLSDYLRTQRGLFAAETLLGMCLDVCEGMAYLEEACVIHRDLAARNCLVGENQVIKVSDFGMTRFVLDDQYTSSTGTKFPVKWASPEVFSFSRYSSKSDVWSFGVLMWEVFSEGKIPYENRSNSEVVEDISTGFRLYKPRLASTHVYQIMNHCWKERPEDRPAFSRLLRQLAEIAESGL

A2780 [21] = assay: Inhibition of A2780 / TAX-S human ovarian carcinoma cell proliferation; format: functional, cell-based
Caco-2 = assay: Inhibition of CACO-2 human colon carcinoma cell proliferation; format: functional, cell-based
LX-1 = assay: Inhibition of LX-1 human lung carcinoma proliferation; format: functional, cell-based
[22] = biological target: Cyclin-dependent kinase 2 (Homo sapiens) (UniProt P24941); assay: Percentage A2780 cells in S-phase after 24 hr r at 20 nM (IC50); format: functional, cell-based
M109 = assay: Inhibition of M109 mouse lung carcinoma cell proliferation; format: functional, cell-based
MIP = assay: Inhibition of MIP human colon carcinoma cell line; format: functional, cell-based
[23] = biological target: Cyclin-dependent kinase 2 (Homo sapiens) (UniProt P24941); assay: Apoptotic A2780 cells after 24 hr r at 20 nM (IC50); format: functional, cell-based
[24] = biological target: Cyclin-dependent kinase 2 (Homo sapiens) (UniProt P24941); assay: Percentage A2780 cells in sub-G1 after 24 hr r at 20 nM (IC50); format: functional, cell-based

Chain of Cyclin-dependent kinase 4/cyclin D1 (P11802 whole entry): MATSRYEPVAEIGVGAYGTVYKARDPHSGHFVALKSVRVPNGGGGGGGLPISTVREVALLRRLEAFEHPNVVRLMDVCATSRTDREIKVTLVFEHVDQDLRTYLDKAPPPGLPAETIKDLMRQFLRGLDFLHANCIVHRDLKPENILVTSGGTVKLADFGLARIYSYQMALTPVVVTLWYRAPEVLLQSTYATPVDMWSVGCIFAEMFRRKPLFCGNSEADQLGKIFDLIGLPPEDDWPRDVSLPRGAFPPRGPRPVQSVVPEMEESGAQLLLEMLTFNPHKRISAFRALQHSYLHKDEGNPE
Chain of Cyclin-dependent kinase 4/cyclin D1 (P24385 whole entry, further chain): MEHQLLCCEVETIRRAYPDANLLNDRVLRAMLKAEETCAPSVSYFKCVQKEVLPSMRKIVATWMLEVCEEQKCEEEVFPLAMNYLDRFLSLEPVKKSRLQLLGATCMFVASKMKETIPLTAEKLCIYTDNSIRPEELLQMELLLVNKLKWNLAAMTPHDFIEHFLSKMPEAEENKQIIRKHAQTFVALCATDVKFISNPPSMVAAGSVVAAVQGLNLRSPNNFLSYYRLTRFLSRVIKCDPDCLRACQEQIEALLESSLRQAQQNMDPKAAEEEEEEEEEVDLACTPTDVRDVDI
Chain of Receptor tyrosine-protein kinase erbB-2 (P04626 whole entry): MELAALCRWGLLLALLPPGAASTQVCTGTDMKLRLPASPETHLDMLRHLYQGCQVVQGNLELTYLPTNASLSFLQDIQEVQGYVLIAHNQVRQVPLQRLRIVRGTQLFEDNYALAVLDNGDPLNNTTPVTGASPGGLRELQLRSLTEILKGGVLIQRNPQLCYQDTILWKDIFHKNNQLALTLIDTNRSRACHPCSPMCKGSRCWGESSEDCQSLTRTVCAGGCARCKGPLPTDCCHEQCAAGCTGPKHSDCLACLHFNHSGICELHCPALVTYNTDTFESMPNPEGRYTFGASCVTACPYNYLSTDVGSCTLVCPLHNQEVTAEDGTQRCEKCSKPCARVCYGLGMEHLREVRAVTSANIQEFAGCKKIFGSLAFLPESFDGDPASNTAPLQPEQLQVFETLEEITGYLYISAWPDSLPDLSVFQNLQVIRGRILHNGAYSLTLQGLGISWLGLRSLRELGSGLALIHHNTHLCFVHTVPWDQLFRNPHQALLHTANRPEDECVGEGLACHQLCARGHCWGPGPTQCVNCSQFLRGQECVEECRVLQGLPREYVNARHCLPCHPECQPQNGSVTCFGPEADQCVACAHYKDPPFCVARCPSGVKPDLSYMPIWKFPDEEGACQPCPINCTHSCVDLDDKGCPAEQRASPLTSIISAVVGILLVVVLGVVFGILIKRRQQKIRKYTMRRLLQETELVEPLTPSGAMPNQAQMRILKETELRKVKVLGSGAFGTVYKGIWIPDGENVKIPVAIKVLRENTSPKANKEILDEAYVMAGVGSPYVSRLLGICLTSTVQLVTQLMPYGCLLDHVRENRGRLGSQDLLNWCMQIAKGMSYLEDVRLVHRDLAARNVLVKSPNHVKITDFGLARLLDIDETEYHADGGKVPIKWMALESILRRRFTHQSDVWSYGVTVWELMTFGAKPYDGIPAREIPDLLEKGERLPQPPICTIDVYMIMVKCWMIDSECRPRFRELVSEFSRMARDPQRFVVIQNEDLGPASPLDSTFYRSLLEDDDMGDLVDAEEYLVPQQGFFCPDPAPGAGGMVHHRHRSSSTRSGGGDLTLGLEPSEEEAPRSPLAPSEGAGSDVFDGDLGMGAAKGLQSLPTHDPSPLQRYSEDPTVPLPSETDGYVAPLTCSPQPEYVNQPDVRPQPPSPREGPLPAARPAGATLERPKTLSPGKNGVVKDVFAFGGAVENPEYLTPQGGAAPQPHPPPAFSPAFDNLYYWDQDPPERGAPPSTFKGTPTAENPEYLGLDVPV

SMILES: CCN(C)C(=O)CSc1cnc(NC(C)=O)s1
- IC50 [1]: > 25000 nM

SMILES: CC(C)(C)c1cnc(CSc2cnc(NS(=O)(=O)c3ccccc3)s2)o1
- IC50 [1]: 4280 nM
- IC50 (A2780 [3]): 2860 nM

SMILES: CC(=O)Nc1ncc(SCC(C)C)s1
- IC50 [1]: > 1000 nM

SMILES: COC(=O)C(Sc1cnc(NC(C)=O)s1)C1CCCCC1 (centres undefined)
- IC50 [1]: > 1000 nM

SMILES: CC(=O)Nc1cnc(SCc2ncc(C(C)(C)C)o2)s1
- IC50 [1]: > 25000 nM

SMILES: CC(=O)Nc1ncc(SCC(O)CC(C)(C)C)s1 (centres undefined)
- IC50 [1]: 2810 nM

SMILES: COC(=O)C(Sc1cnc(NC(C)=O)s1)c1ccccc1 (centres undefined)
- IC50 [1]: > 1000 nM

SMILES: CC(=O)Nc1nc(CSc2cnc(NC(C)=O)s2)cs1
- IC50 [1]: > 1000 nM

SMILES: CC(=O)Nc1ncc(SCCc2cccc3ccccc23)s1
- IC50 [1]: > 1000 nM

SMILES: CC(=O)Nc1ncc(SCC2CCCCC2)s1
- IC50 [1]: > 1000 nM

SMILES: CC(=O)Nc1nnc(SCC(=O)OC(C)(C)C)s1
- IC50 [1]: > 25000 nM

SMILES: CC(=O)Nc1ncc(SCc2c(C)noc2C)s1
- IC50 [1]: > 1000 nM

The next lines start with results.

- IC50 [1]: 1840 nM
SMILES: CC(=O)Nc1ncc(SCC(=O)CC(C)(C)C)s1

- IC50 [2]: 4510 nM
- IC50 [1]: 350 nM
SMILES: CC(=O)Nc1ncc(SCc2ncc(-c3ccccc3)o2)s1

- IC50 [2]: 5160 nM
- IC50 [1]: 90 nM
SMILES: CC(=O)Nc1ncc(SCc2ncc(C)o2)s1

- IC50 [2]: 19100 nM
- IC50 [1]: 340 nM
- IC50 [4]: 2380 nM
SMILES: CC(=O)Nc1ncc(SCC(=O)OCc2ccccc2)s1

- IC50 [2]: 5380 nM
- IC50 [1]: 50 nM
- IC50 [4]: 440 nM
SMILES: CC(=O)Nc1ncc(SCC(=O)OC(C)(C)C)s1

- IC50 [1]: 60 nM
SMILES: C[C@H](C(=O)Nc1ncc(SCc2ncc(C(C)(C)C)o2)s1)c1ccccc1

- IC50 [2]: > 25000 nM
- IC50 [1]: 140 nM
- IC50 [4]: 140 nM
SMILES: CC(C)C(=O)Nc1ncc([S+]([O-])Cc2ncc(C(C)(C)C)o2)s1 (centres undefined)

- IC50 [1]: 150 nM
- IC50 (A2780 [3]): 1040 nM
SMILES: CC(C)(C)c1cnc(CSc2cnc(NC(=O)OCc3ccccc3)s2)o1

- IC50 [5]: > 25000 nM
- IC50 (SK-BR-3): 1640 nM
- IC50 (HCT-116 [6]): 450 nM
- IC50 (A2780 [7]): 1420 nM
- IC50 [8]: > 25000 nM
- IC50 [2]: 2250 nM
- IC50 (K562): 3230 nM
- Cell cycle [9]: 16%
- Cell cycle [10]: 58%
- IC50 [1]: 20 nM
- IC50 (A2780 [11]): 1140 nM
- IC50 (A-431): 960 nM
- Cell cycle [12]: 62%
- Cell cycle [13]: 7%
- IC50 (PC-3): 1060 nM
- IC50 (OVCAR-3): 1210 nM
- IC50 (A2780 [14]): 1050 nM
- IC50 (CCRF-CEM): 1450 nM
- IC50 (HL-60): 1400 nM
- Cell cycle [15]: 29%
- Cell cycle [16]: 6%
- IC50 (A549): 1870 nM
- IC50 [4]: 300 nM
- IC50 (A2780 [3]): 1400 nM
- IC50 (HCT-116 [17]): 480 nM
- IC50 (HCT-116 [18]): 530 nM
- IC50 (MCF7): 1470 nM
- Cell cycle [19]: 25%
- IC50 [20]: > 10000 nM
- IC50 (A2780 [21]): 700 nM
- IC50 (Caco-2): 1610 nM
- Cell cycle [22]: 11%
- IC50 (MIP): 1790 nM
- Cell cycle [23]: 6%
- Cell cycle [24]: 2%
SMILES: CCc1cnc(CSc2cnc(NC(C)=O)s2)o1
- IC50 (HS27): 860 nM
- IC50 (MLF): 1860 nM
- IC50 (LS174T): 1710 nM
- IC50 (ABAE): 1100 nM
- IC50 (LX-1): 1900 nM
- IC50 (M109): 2100 nM

- IC50 [1]: 3 nM
SMILES: CC(C)(C)c1ncc(CSc2cnc(NC(=O)Cc3ccccc3)s2)o1

- IC50 [1]: 680 nM
SMILES: CC(=O)Nc1ncc(SCc2cccnc2)s1

- IC50 [1]: 250 nM
- IC50 [4]: > 250 nM
SMILES: CC(C)C(=O)Nc1ncc(S(=O)(=O)Cc2ncc(C(C)(C)C)o2)s1

- IC50 [2]: 3480 nM
- IC50 [1]: 17 nM
- IC50 [4]: 90 nM
- IC50 (A2780 [3]): 250 nM
SMILES: CC(C)(C)C(=O)Nc1ncc(SCc2ncc(C(C)(C)C)o2)s1

— ChEMBL document CHEMBL1135763, “Discovery of aminothiazole inhibitors of cyclin-dependent kinase 2: synthesis, X-ray crystallographic analysis, and biological activities” (J Med Chem, 2002)
